Results taken from publication PMC7438494 (Communications Biology, 2020).
Where two headings read alike, the source gives them in different places.

Molecular target: human ATP synthase (Homo sapiens, UniProt P00846+P05496)
Assay: biochemical
Assay type: biochemical

Compound: COc1nc2ccc(Br)cc2cc1[C@@H](c1ccccc1)[C@@](O)(CCN(C)C)c1cccc2ccccc12 [BDQ, Bedaquiline]
- activity at 1 µM (Human Mito, 4th exp (18_12_26), BDQ 1 uM, read-out: Cyanide sensitive % activity): 8.67%
- activity at 2 µM (Human Mito, 4th exp (18_12_26), BDQ 2 uM, read-out: Cyanide sensitive % activity): 2.82%
- activity at 5 µM (Human Mito, 4th exp (18_12_26), BDQ 5 uM, read-out: Cyanide sensitive % activity): -2.55%
- activity at 10 µM (Human Mito, 4th exp (18_12_26), BDQ 10 uM, read-out: Cyanide sensitive % activity): 0%
- Cyanide sensitive (Human Mito, 5th exp (19), BDQ in DMSO, Bedaquiline 5e-5 μM, 60 min): 8.081 nmol/min/mg
- Cyanide sensitive (Human Mito, 5th exp (19), BDQ in DMSO, Bedaquiline 0.0005 μM, 60 min): 7.799 nmol/min/mg
- activity at 0.0005 µM (Human Mito, 5th exp (19), BDQ in DMSO, Bedaquiline 0.0005 μM, 60 min, read-out: % activity): 75.5%
- Cyanide sensitive (Human Mito, 5th exp (19), BDQ in DMSO, Bedaquiline 0.005 μM, 60 min): 7.932 nmol/min/mg
- activity at 0.005 µM (Human Mito, 5th exp (19), BDQ in DMSO, Bedaquiline 0.005 μM, 60 min, read-out: % activity): 71.9%
- Cyanide sensitive (Human Mito, 5th exp (19), BDQ in DMSO, Bedaquiline 0.1 μM, 60 min): 7.371 nmol/min/mg
- activity at 0.1 µM (Human Mito, 5th exp (19), BDQ in DMSO, Bedaquiline 0.1 μM, 60 min, read-out: % activity): 76.1%
- Cyanide sensitive (Human Mito, 5th exp (19), BDQ in DMSO, Bedaquiline 0.2 μM, 60 min): 5.1485 nmol/min/mg
- activity at 0.2 µM (Human Mito, 5th exp (19), BDQ in DMSO, Bedaquiline 0.2 μM, 60 min, read-out: % activity): 61.2%
- Cyanide sensitive (Human Mito, 5th exp (19), BDQ in DMSO, Bedaquiline 0.5 μM, 60 min): 7.123 nmol/min/mg
- activity at 0.5 µM (Human Mito, 5th exp (19), BDQ in DMSO, Bedaquiline 0.5 μM, 60 min, read-out: % activity): 73.7%
- Cyanide sensitive (Human Mito, 5th exp (19), BDQ in DMSO, Bedaquiline 0.65 μM, 60 min): 5.712 nmol/min/mg
- activity at 0.65 µM (Human Mito, 5th exp (19), BDQ in DMSO, Bedaquiline 0.65 μM, 60 min, read-out: % activity): 69.7%
- Cyanide sensitive (Human Mito, 5th exp (19), BDQ in DMSO, Bedaquiline 1 μM, 60 min): -0.04135 nmol/min/mg
- activity at 1 µM (Human Mito, 5th exp (19), BDQ in DMSO, Bedaquiline 1 μM, 60 min, read-out: % activity): 11.1%
- Cyanide sensitive (Human Mito, 5th exp (19), BDQ in DMSO, Bedaquiline 2 μM, 60 min): -0.9975 nmol/min/mg
- activity at 2 µM (Human Mito, 5th exp (19), BDQ in DMSO, Bedaquiline 2 μM, 60 min, read-out: % activity): 5%
- Cyanide sensitive (Human Mito, 5th exp (19), BDQ in DMSO, Bedaquiline 5 μM, 60 min): -2.758 nmol/min/mg
- activity at 5 µM (Human Mito, 5th exp (19), BDQ in DMSO, Bedaquiline 5 μM, 60 min, read-out: % activity): 0.69%
- Cyanide sensitive (Human Mito, 5th exp (19), BDQ in DMSO, Bedaquiline 10 μM, 60 min): -0.848 nmol/min/mg
- activity at 10 µM (Human Mito, 5th exp (19), BDQ in DMSO, Bedaquiline 10 μM, 60 min, read-out: % activity): 3.96%
- activity at 0.0005 µM (Human Mito, 5th exp (19_01_02), BDQ 0.0005 uM, read-out: Cyanide sensitive % activity): 75.5%
- activity at 0.005 µM (Human Mito, 5th exp (19_01_02), BDQ 0.005 uM, read-out: Cyanide sensitive % activity): 71.9%
- activity at 0.1 µM (Human Mito, 5th exp (19_01_02), BDQ 0.1 uM, read-out: Cyanide sensitive % activity): 76.1%
- activity at 0.2 µM (Human Mito, 5th exp (19_01_02), BDQ 0.2 uM, read-out: Cyanide sensitive % activity): 61.2%
- activity at 0.5 µM (Human Mito, 5th exp (19_01_02), BDQ 0.5 uM, read-out: Cyanide sensitive % activity): 73.7%
- activity at 0.65 µM (Human Mito, 5th exp (19_01_02), BDQ 0.65 uM, read-out: Cyanide sensitive % activity): 69.7%
- activity at 1 µM (Human Mito, 5th exp (19_01_02), BDQ 1 uM, read-out: Cyanide sensitive % activity): 11.1%
- activity at 2 µM (Human Mito, 5th exp (19_01_02), BDQ 2 uM, read-out: Cyanide sensitive % activity): 5%
- activity at 5 µM (Human Mito, 5th exp (19_01_02), BDQ 5 uM, read-out: Cyanide sensitive % activity): 0.69%
- activity at 10 µM (Human Mito, 5th exp (19_01_02), BDQ 10 uM, read-out: Cyanide sensitive % activity): 3.96%
- Cyanide sensitive % activity, Average (Human Mito, average of experiments, BDQ 5e-6 uM): 75.05%
- Cyanide sensitive % activity, Average (Human Mito, average of experiments, BDQ 5e-5 uM): 71.33%
- activity at 0.0005 µM (Human Mito, average of experiments, BDQ 0.0005 uM, read-out: Cyanide sensitive % activity, Average): 78.5%
- activity at 0.005 µM (Human Mito, average of experiments, BDQ 0.005 uM, read-out: Cyanide sensitive % activity, Average): 68%
- activity at 0.1 µM (Human Mito, average of experiments, BDQ 0.1 uM, read-out: Cyanide sensitive % activity, Average): 70.6%
- activity at 0.2 µM (Human Mito, average of experiments, BDQ 0.2 uM, read-out: Cyanide sensitive % activity, Average): 57.6%
- activity at 0.5 µM (Human Mito, average of experiments, BDQ 0.5 uM, read-out: Cyanide sensitive % activity, Average): 52.1%
- activity at 0.65 µM (Human Mito, average of experiments, BDQ 0.65 uM, read-out: Cyanide sensitive % activity, Average): 44.5%
- activity at 0.85 µM (Human Mito, average of experiments, BDQ 0.85 uM, read-out: Cyanide sensitive % activity, Average): 27.4%
- activity at 1 µM (Human Mito, average of experiments, BDQ 1 uM, read-out: Cyanide sensitive % activity, Average): 6.29%
- activity at 2 µM (Human Mito, average of experiments, BDQ 2 uM, read-out: Cyanide sensitive % activity, Average): 0.46%
- activity at 5 µM (Human Mito, average of experiments, BDQ 5 uM, read-out: Cyanide sensitive % activity, Average): -2%
- activity at 10 µM (Human Mito, average of experiments, BDQ 10 uM, read-out: Cyanide sensitive % activity, Average): 0.62%
- activity at 0.0005 µM (Human Mito, plotted duplicates, first column, BDQ 0.0005 uM, read-out: % activity): 81.5%
- activity at 0.005 µM (Human Mito, plotted duplicates, first column, BDQ 0.005 uM, read-out: % activity): 88.5%
- activity at 0.1 µM (Human Mito, plotted duplicates, first column, BDQ 0.1 uM, read-out: % activity): 71.2%
- activity at 0.2 µM (Human Mito, plotted duplicates, first column, BDQ 0.2 uM, read-out: % activity): 59.5%
- activity at 0.5 µM (Human Mito, plotted duplicates, first column, BDQ 0.5 uM, read-out: % activity): 51.2%
- activity at 0.65 µM (Human Mito, plotted duplicates, first column, BDQ 0.65 uM, read-out: % activity): 37.6%
- activity at 0.85 µM (Human Mito, plotted duplicates, first column, BDQ 0.85 uM, read-out: % activity): 33.1%
- activity at 1 µM (Human Mito, plotted duplicates, first column, BDQ 1 uM, read-out: % activity): 8.67%
- activity at 2 µM (Human Mito, plotted duplicates, first column, BDQ 2 uM, read-out: % activity): 2.82%
- activity at 5 µM (Human Mito, plotted duplicates, first column, BDQ 5 uM, read-out: % activity): -2.55%
- activity at 10 µM (Human Mito, plotted duplicates, first column, BDQ 10 uM, read-out: % activity): -2.1%
- activity at 0.0005 µM (Human Mito, plotted duplicates, second column, BDQ 0.0005 uM, read-out: % activity): 75.5%
- activity at 0.005 µM (Human Mito, plotted duplicates, second column, BDQ 0.005 uM, read-out: % activity): 71.9%
- activity at 0.1 µM (Human Mito, plotted duplicates, second column, BDQ 0.1 uM, read-out: % activity): 76.1%
- activity at 0.2 µM (Human Mito, plotted duplicates, second column, BDQ 0.2 uM, read-out: % activity): 61.2%
- activity at 0.5 µM (Human Mito, plotted duplicates, second column, BDQ 0.5 uM, read-out: % activity): 58%
- activity at 0.65 µM (Human Mito, plotted duplicates, second column, BDQ 0.65 uM, read-out: % activity): 40%
- activity at 0.85 µM (Human Mito, plotted duplicates, second column, BDQ 0.85 uM, read-out: % activity): 32.5%
- activity at 1 µM (Human Mito, plotted duplicates, second column, BDQ 1 uM, read-out: % activity): 11.1%
- activity at 2 µM (Human Mito, plotted duplicates, second column, BDQ 2 uM, read-out: % activity): 1.13%
- activity at 5 µM (Human Mito, plotted duplicates, second column, BDQ 5 uM, read-out: % activity): 0.69%
- activity at 10 µM (Human Mito, plotted duplicates, second column, BDQ 10 uM, read-out: % activity): 3.96%
- extent of inhibition of ATP synthesis of the human enzyme (in words): nearly completely
- activity at 0.0005 µM (read-out: % activity): 89.6%
- activity at 0.1 µM (read-out: % activity): 81.7%
- activity at 0.2 µM (read-out: % activity): 77.1%
- activity at 0.5 µM (read-out: % activity): 62.5%
- activity at 0.85 µM (read-out: % activity): 54%
- activity at 1 µM (read-out: % activity): 48.4%
- activity at 2 µM (read-out: % activity): 45.8%
- activity at 10 µM (read-out: % activity): 36.3%
- inhibition at 0.2 µM (read-out: % inhibition): 22.9%
- inhibition at 0.5 µM (read-out: % inhibition): 37.5%
- inhibition at 1 µM (read-out: % inhibition): 57.4%
- inhibition at 2 µM (read-out: % inhibition): 54.2%
- inhibition at 10 µM (read-out: % inhibition): 63.7%
